Experimental data reported in patent US20170267750A1, “Method of Treating Ovarian and Renal Cancer Using Antibodies Against T Cell Immunoglobulin Domain and Mucin Domain 1 (TIM-1) Antigen” (Celldex Therapeutics, Inc., priority 2005, published 2017).
Where a name gives a salt, the structure may show the parent alone.

Assays:
[1] = test system: IGROV1 ovarian carcinoma xenografts; test: Human ovarian carcinoma xenograft model (IGROV1) in athymic mice; assay type: in vivo, athymic mice (CD-1 nu/nu females)
Method: An in vivo study was performed to assess the potency and therapeutic efficacy of the antibody-drug conjugate, CR014-vcMMAE, against an established human IGROV-1 ovarian xenograft in athymic mice.
Test Animals: Five- to 6-week old athymic mice (CD-1 nu/nu females), used for human tumor xenografts, were obtained from Charles Rivers Laboratories (Wilmington, Del.). Animals were housed in specific pathogen-free conditions, according to the guidelines of the Association for Assessment and Accreditation of Laboratory Animal Care International (AAALAC International). Test animals were provided pelleted food and water ad libitum and kept in a room with conditioned ventilation (HVAC), temperature (22°±2° C.), relative humidity (55%±15%), and photoperiod (12 hr). All studies were carried out with approved institutional animal care and use protocols. Contract Research Organizations. Experiments in vivo were conducted at Southern Research Institute (Birmingham, Ala.).
Human Ovarian Carcinoma Xenograft Model. The tumor inhibitory activity of the CR014-MMAE immunoconjugate was measured in an anti-tumor xenograft model using athymic mice, according to published methods (Geran R I, Greenberg N H, Macdonald M M, Schumacher A M and Abbott B J (1972) Protocols for screening chemical agents and natural products against animal tumors and other biological systems. Cancer Chemother Rep 3:1-104).
Briefly, test animals were implanted subcutaneously by trocar with small fragments of the IGROV1 carcinoma (30-60 mg) excised from athymic mouse tumor donors. […]
The IGROV1 ovarian carcinoma was derived from a person in 1985, and was obtained from the American Type Culture Collection. The effects of treatment were monitored by repetitive tumor measurements across 2 diameters with Vernier calipers; tumor size (in mg) was calculated using a standard formula, (W^2×L)/2, assuming a specific gravity of 1.0. Tumor size and body weights were assessed twice weekly. […]

BT549 cells = test: Antibody mediated toxin killing clonogenic assay (saporin conjugated secondary antibody), BT549; assay type: cell-based, human; settings: EGFR mAb at 100 ng/mL with saporin secondary
Method: (§1) A clonogenic assay as described in the art was used to determine whether primary antibodies can induce cancer cell death when used in combination with a saporin toxin conjugated secondary antibody reagent. Kohls and Lappi, Biotechniques, 28(1):162-5 (2000).
(§2) ACHN and BT549 cells were plated onto flat bottom tissue culture plates at a density of 3000 cells per well. On day 2 or when cells reached ˜25% confluency, 100 ng/well secondary mAb-toxin (goat anti-human IgG-saporin; Advanced Targeting Systems; HUM-ZAP; cat. no. IT-22) was added. A positive control anti-EGFR antibody, mAb 2.7.2, mAb 2.59.2, or an isotype control mAb was then added to each well at the desired concentration (typically 1 to 500 ng/mL). On day 5, the cells were trypsinized, transferred to a 150 mm tissue culture dish, and incubated at 37° C. Plates were examined daily. On days 10-12, all plates were Giemsa stained and colonies on the plates were counted. Plating efficiency was determined by comparing the number of cells prior to transfer to 150 mm plates to the number of colonies that eventually formed.
(§3) The percent viability in antigen positive ACHN and antigen negative BT549 cell lines are presented in FIG. 4 and FIG. 5 respectively.

ACHN cells = test: Antibody mediated toxin killing clonogenic assay (saporin conjugated secondary antibody), ACHN; assay type: cell-based, human; settings: EGFR mAb at 100 ng/mL with saporin secondary
Method: as §1, §2, §3

CC[C@]1(O)C[C@@H]2CN(CCc3c([nH]c4ccccc34)[C@@](C(=O)OC)(c3cc4c(cc3OC)N(C)[C@H]3[C@@](O)(C(=O)OC)[C@H](OC(C)=O)[C@]5(CC)C=CCN6CC[C@]43[C@@H]65)C2)C1 [Vinblastine, vinblastine sulfate]
anti-tumor effect ([1]; vinblastine sulfate i.v., 1.7 mg/kg, q4d×4 (MTD)): very slight, but not significant, anti-tumor effect

CC(=O)O[C@H]1C(=O)[C@@]2(C)[C@H]([C@H](OC(=O)c3ccccc3)[C@]3(O)C[C@H](OC(=O)[C@H](O)[C@@H](NC(=O)c4ccccc4)c4ccccc4)C(C)=C1C3(C)C)[C@]1(OC(C)=O)CO[C@@H]1C[C@@H]2O [Paclitaxel, paclitaxel]
re-growth of tumors during the observation period ([1]; 101 days after the commencement of treatment): not observed | anti-tumor effect ([1]; paclitaxel i.v., 24 mg/kg, q2d×4 (MTD)): significant tumor growth inhibition

O=c1[nH]cc(F)c(=O)[nH]1 [5-FU, 5 Fluorouracil, reference compound]
killing in clonogenic assay (controls) (BT549 cells): almost complete killing | killing in clonogenic assay (controls) (ACHN cells): almost complete killing
